What was measured:
[1] = test system: Amyloid-β peptide release (AβTotal), HEK cells overexpressing APP (HEK-APP); assay: Amyloid-β peptide release (AβTotal) assay, AlphaLISA on supernatant of HEK-APP cells; assay type: cell-based; settings: ratio Abtot vs Ab42, HEK-APP cells, 24 h
Description: (§1) Amyloid-β Peptide Release (Aβ42 & AβTotal) Assay to Determine IC50 Values.
(§2) Compounds are dissolved in and diluted in 100% DMSO and incubated with HEK-APP cells for 24 h at 37° C. in 5% CO2. The supernatant from HEK-APP cells are mixed with antibodies: for Aβ42 detection: AlphaLISA Amyloid-β 1-42 Kit (Perkin Elmer AL203L) Anti-Amyloid β1-42-specific antibody acceptor beads, biotinylated anti-Amyloid-“β1-42” antibody and streptavidin (SA) donor beads diluted in AlphaLISA buffer (to the instructions of the supplier). For Aβ total detection: Custom Anti-Amyloid-βtotal acceptor beads (6E10 acceptor beads), biotinylated anti-Amyloid “β1-42” antibody (Perkin Elmer AL203L) and streptavidin (SA) donor beads diluted in AlphaLISA buffer (to the instructions of the supplier). After addition of supernatant to the antibody mix, the assay is incubated for 4.5 h. Amyloid-β peptide release (Aβ42 & AβTotal) is measured with a Pherastar FS (BMG) multimode reader using the alphascreen module.

[2] = test system: Amyloid-β peptide release (Aβ42), HEK cells overexpressing APP (HEK-APP); assay: Amyloid-β peptide release (Aβ42) assay, AlphaLISA on supernatant of HEK-APP cells; assay type: cell-based; settings: Homo sapiens, HEK293, 24 h incubation with compound, read-out: Ab42 IC50 Ranges
Description: as §1, §2

| SMILES | Abtot/Ab42 selectivity ranges [1] | IC50 [2] [nM] |
| --- | --- | --- |
| COc1cc(NC(=O)Cc2cccc3ccccc23)ccc1-c1nn2c(C)ncc2s1 [Example 125, N-[3-Methoxy-4-(5-methyl-imidazo[5,1-b][1,3,4]thiadiazol-2-yl)-phenyl]-2-naphthalen-1-yl-acetamide] | c (c: 50 fold > selectivity ≥ 10 fold) | 100 to 500 |
| Cc1ncc2sc(C(=O)NC(c3ccc(Cl)cc3)C3CC3)nn12 (centres unmarked) [Example 91, 5-Methyl-imidazo[5,1-b][1,3,4]thiadiazole-2-carboxylic acid [(4-chloro-phenyl)-cyclopropyl-methyl]-amide] | d (d: 10 fold > selectivity) | 1000 to 2200 |
| CCOc1ccccc1C(C)NC(=O)c1nn2c(C)ncc2s1 (centres unmarked) [Example 90, 5-Methyl-imidazo[5,1-b][1,3,4]thiadiazole-2-carboxylic acid [1-(2-ethoxy-phenyl)-ethyl]-amide] | d (d: 10 fold > selectivity) | 500 to 1000 |
| Cc1ncc2oc(-c3ccc(NC(=O)Cc4c(Cl)cc(C(F)(F)F)cc4Cl)cc3)nn12 [Example 67, 2-(2,6-dichloro-4-(trifluoromethyl)phenyl)-N-(4-(5-methylimidazo [5,1-b][1,3,4]oxadiazol-2-yl)phenyl)acetamide] | c (c: 50 fold > selectivity ≥ 10 fold) | 1000 to 2200 |
| Cc1ncc2sc(-c3ccc(C(=O)NCc4cccc5ccccc45)cc3)nn12 [Example 127, 4-(5-Methyl-imidazo[5,1-b][1,3,4]thiadiazol-2-yl)-N-naphthalen-1-ylmethyl-benzamide] | b (b: 100 fold > selectivity ≥ 50 fold) | 500 to 1000 |
| Cc1ncc2oc(-c3ccc(NC(=O)Cc4ccccc4C(F)(F)F)cn3)nn12 [Example 83, N-[6-(5-Methyl-imidazo[5,1-b][1,2,4]oxadiazol-2-yl)-pyridin-3-yl]-2-(2-trifluoromethyl-phenyl)-acetamide] | c (c: 50 fold > selectivity ≥ 10 fold) | 1000 to 2200 |
| Cc1ncc2oc(-c3ccc(NC(=O)Cc4ccc(OC(F)(F)F)cc4)cc3)nn12 [Example 6, N-[4-(5-Methyl-imidazo[5,1-b][1,2,4]oxadiazol-2-yl)-phenyl]-2-(4-trifluoromethoxy-phenyl)-acetamide] | c (c: 50 fold > selectivity ≥ 10 fold) | 500 to 1000 |
| COc1cc(NC(=O)Cc2cccc(C(F)(F)F)c2)ccc1-c1nn2c(C)ncc2o1 [Example 31, N-(3-methoxy-4-(5-methylimidazo[5,1-b][1,3,4]oxadiazol-2-yl)phenyl)-2-(3-(trifluoromethyl)phenyl)acetamide] | a (a: selectivity ≥ 100 fold) | 100 to 500 |
| Cc1ncc2oc(-c3ccc(Nc4nc5c(s4)CCCC5c4ccccc4)cc3)nn12 (centres unmarked) [Example 26, [4-(5-Methyl-imidazo[5,1-b][1,2,4]oxadiazol-2-yl)-phenyl]-(4-phenyl-4,5,6,7-tetrahydro-benzothiazol-2-yl)-amine] | c (c: 50 fold > selectivity ≥ 10 fold) | 1000 to 2200 |
| Cc1ncc2sc(C(=O)N(Cc3ccccc3)CC(C)C)nn12 [Example 89, 5-Methyl-imidazo[5,1-b][1,3,4]thiadiazole-2-carboxylic acid benzyl-isobutyl-amide] | d (d: 10 fold > selectivity) | 100 to 500 |
| Cc1ncc2oc(-c3ccc(Nc4nccc(NCc5cccc(C(F)(F)F)c5)n4)cc3)nn12 [Example 76, N2-(4-(5-methylimidazo[5,1-b][1,3,4]oxadiazol-2-yl)phenyl)-N4-(3-(trifluoromethyl)benzyl) pyrimidine-2,4-diamine] | d (d: 10 fold > selectivity) | 1000 to 2200 |
| Cc1ncc2oc(-c3ccc(C(=O)NCc4csc5ccc(Cl)cc45)cc3)nn12 [Example 88, N-((5-chlorobenzo[b]thiophen-3-yl)methyl)-4-(5-methylimidazo[5,1-b][1,3,4]oxadiazol-2-yl)benzamide] | c (c: 50 fold > selectivity ≥ 10 fold) | 1000 to 2200 |
| Cc1ncc2oc(-c3ccc(Nc4ccn(Cc5ccc(Cl)c(Cl)c5)n4)cc3)nn12 [Example 30, [1-(3,4-Dichloro-benzyl)-1H-pyrazol-3-yl]-[4-(5-methyl-imidazo[5,1-b][1,2,4]oxadiazol-2-yl)-phenyl]-amine] | c (c: 50 fold > selectivity ≥ 10 fold) | 1000 to 2200 |
| Cc1ncc2oc(-c3ccc(NC(=O)Cc4cccc(F)c4F)cn3)nn12 [Example 79, 2-(2,3-Difluoro-phenyl)-N-[6-(5-methyl-imidazo[5,1-b][1,2,4]oxadiazol-2-yl)-pyridin-3-yl]-acetamide] | c (c: 50 fold > selectivity ≥ 10 fold) | 1000 to 2200 |
| Cc1cc(-c2nn3c(C)ncc3o2)ccc1NC(=O)Cc1cccc(C(F)(F)F)c1 [Example 41, N-(2-methyl-4-(5-methylimidazo[5,1-b][1,3,4]oxadiazol-2-yl)phenyl)-2-(3-(trifluoromethyl)phenyl)acetamide] | b (b: 100 fold > selectivity ≥ 50 fold) | 500 to 1000 |
| Cc1ncc2sc(C(=O)N3CCCC3c3ccccc3)nn12 (centres unmarked) [Example 93, (5-Methyl-imidazo[5,1-b][1,3,4]thiadiazol-2-yl)-(2-phenyl-pyrrolidin-1-yl)-methanone] | d (d: 10 fold > selectivity) | 100 to 500 |
| COc1cc(C(=O)NCc2cccc(C(F)(F)F)c2)ccc1-c1nn2c(C)ncc2o1 [Example 18, 3-Methoxy-4-(5-methyl-imidazo[5,1-b][1,2,4]oxadiazol-2-yl)-N-(3-trifluoromethyl-benzyl)-benzamide] | c (c: 50 fold > selectivity ≥ 10 fold) | 1000 to 2200 |
| Cc1ncc2sc(C(=O)N3CCCC3c3ccc(C(F)(F)F)cc3)nn12 (centres unmarked) [Example 112, (5-Methyl-imidazo[5,1-b][1,3,4]thiadiazol-2-yl)-[2-(4-trifluoromethyl-phenyl)-pyrrolidin-1-yl]-methanone] | d (d: 10 fold > selectivity) | 100 to 500 |
| Cc1ncc2oc(-c3ccc(NC(=O)Nc4cccc(C(F)(F)F)c4)cc3)nn12 [Example 52, 1-[4-(5-Methyl-imidazo[5,1-b][1,2,4]oxadiazol-2-yl)-phenyl]-3-(3-trifluoromethyl-phenyl)-urea] | d (d: 10 fold > selectivity) | 1000 to 2200 |
| Cc1ncc2oc(-c3ccc(Nc4nc5n(n4)CCCC5c4ccc(F)cc4)cc3)nn12 (centres unmarked) [Example 24, 8-(4-fluorophenyl)-N-(4-(5-methylimidazo[5,1-b][1,3,4]oxadiazol-2-yl)phenyl)-5,6,7,8-tetrahydro-[1,2,4]triazolo[1,5-a]pyridin-2-amine] | c (c: 50 fold > selectivity ≥ 10 fold) | 500 to 1000 |
| Cc1ncc2oc(-c3ccc(NC(=O)Cc4ccc(Cl)c(C(F)(F)F)c4)cc3)nn12 [Example 4] | c (c: 50 fold > selectivity ≥ 10 fold) | 1000 to 2200 |
| Cc1ccccc1CC(=O)Nc1ccc(-c2nn3c(C)ncc3o2)cc1 [Example 60, N-[4-(5-Methyl-imidazo[5,1-b][1,2,4]oxadiazol-2-yl)-phenyl]-2-o-tolyl-acetamide] | c (c: 50 fold > selectivity ≥ 10 fold) | 1000 to 2200 |
| Cc1ncc2oc(-c3ccc(NC(=O)C(c4ccccc4)c4ccccc4)cn3)nn12 [Example 80, N-[6-(5-Methyl-imidazo[5,1-b][1,2,4]oxadiazol-2-yl)-pyridin-3-yl]-2,2-diphenyl-acetamide] | c (c: 50 fold > selectivity ≥ 10 fold) | 500 to 1000 |
| Cc1ncc2sc(-c3nnc(NCc4ccc(Cl)c(Cl)c4)o3)nn12 [Example 102, (3,4-Dichloro-benzyl)-[5-(5-methyl-imidazo[5,1-b][1,3,4]thiadiazol-2-yl)-[1,3,4]oxadiazol-2-yl]-amine] | d (d: 10 fold > selectivity) | 100 to 500 |
| Cc1ncc2sc(-c3ccc(NC(=O)Cc4cccc(C(F)(F)F)c4)cc3)nn12 [Example 100, N-[4-(5-Methyl-imidazo[5,1-b][1,3,4]thiadiazol-2-yl)-phenyl]-2-(3-trifluoromethyl-phenyl)-acetamide] | b (b: 100 fold > selectivity ≥ 50 fold) | 100 to 500 |
| Cc1ncc2sc(C(=O)N3CCCC[C@H]3c3ccccc3)nn12 [Example 120, (5-Methyl-imidazo[5,1-b][1,3,4]thiadiazol-2-yl)-((S)-2-phenyl-piperidin-1-yl)-methanone] | d (d: 10 fold > selectivity) | 500 to 1000 |
| COc1ccc(Cl)c(CC(=O)Nc2ccc(-c3nn4c(C)ncc4o3)cc2)c1F [Example 69, 2-(6-chloro-2-fluoro-3-methoxyphenyl)-N-(4-(5-methylimidazo [5,1-b][1,3,4]oxadiazol-2-yl)phenyl)acetamide] | b (b: 100 fold > selectivity ≥ 50 fold) | 500 to 1000 |
| Cc1ncc2sc(C(=O)N3CCCCC3c3ccccc3)nn12 (centres unmarked) [Example 108, (5-Methyl-imidazo[5,1-b][1,3,4]thiadiazol-2-yl)-(2-phenyl-piperidin-1-yl)-methanone] | d (d: 10 fold > selectivity) | 500 to 1000 |

From US9932354B2, “Imidazo-oxadiazole and imidazo-thiadiazole derivatives” (Ares Trading S.A., priority 2012, dated 2018)
